How the values were obtained:
[1] = tested on: T17 cells (TrkA stably transfected SN56 cells); assay: Cell-based apoptotic assay: protection of TrkA-expressing T17 cells from staurosporine-initiated apoptosis, MR(DEVD)2 caspase-3 dye; parameters: species or system murine; conditions: for apoptosis inhibitory activity in T17 cells: 0.5 μM pre-incubation, then 1 μM STS for 9 h, compared with NGF
Excerpt: In order to identify small molecules that mimic NGF and activate TrkA, we developed a cell-based apoptotic assay using a cell permeable fluorescent dye MR([…])2, which turns red upon caspase-3 cleavage in apoptotic cells. We utilized a murine cell line T17, which was derived from basal forebrain SN56 cells. T17 cells are TrkA stably transfected SN56 cells. The candidates selectively protecting T17 but not SN56 cells from the first round screen can then be subjected to neurite outgrowth assay for the secondary screen. The positive compounds can be analyzed for TrkA tyrosine phosphorylation, Akt and MAP kinases signaling cascade activation.
T17 cells can be cultured in 96-well plates and preincubated with 10 μM compounds for 30 min, followed by 1 μM staurosporine (STS) treatment for 9 h. MR(DEVD)2 can be introduced to the cells 1 h before examination under fluorescent microscope. The apoptotic cells are red, while live cells have no signal. […] Using the caspase-3-activated fluorescent dye as a visual assay, one can screen the gambogic amine compounds.
To compare the apoptosis inhibitory activity of various compounds, one can pre-incubate gambogic amines derivatives (0.5 μM) with T17 and SN56 cells, followed by 1 μM STS for 9 h. Quantitative analysis of the apoptosis inhibitory activities can determine whether the compounds protect SN56 cells from apoptosis.
T17 cells can be seeded in a 96-well plate at 10,000 cells/well in 100 μl complete medium. Cells can be incubated overnight, followed by 30 min pretreatment with 10 μM compounds in DMSO (10 mM stock concentration from The Spectrum Collection library). The cells can then be treated with 1 μM Staurosporine for 9 h. One h before the termination of the experiment, 10 μM MR(DEVD)2, a cell permeable caspase-3-activated fluorescent dye can be introduced. Cells can be fixed with 4% paraformaldehyde for 15 min. Cells can then be washed with PBS and incubated with 1 μg/ml of Hoechst 33342 for 10 min. Cover slides can then be washed with PBS, mounted, and examined using a fluorescence microscope.

[2] = Kasibhatla et al., 2005; cited from earlier work
Erk1/2 and Akt = Erk1/2 and Akt phosphorylation in T17 cells, immunoblot; type: cell-based, murine; conditions: 30 min
Procedure: (§1) NGF triggers PI 3-kinase/Akt and Ras/MAP Kinase signaling cascades activation through the TrkA receptor. […] The cell lysates can be analyzed by immunoblotting with anti-phospho-Erk1/2 and phospho-Akt-473 antibodies, respectively. […] One can also extend the assays into primary hippocampal neurons. […] Time course assay with hippocampal neurons can show whether gambogic amines (0.5 μM) elicit Akt phosphorylation after 5 min treatment, and whether Akt activation increases after 10 min and is sustained for 60 min. One can also determine whether the gambogic amines provoke Akt activation in a dose-dependent manner.

TrkA = TrkA tyrosine phosphorylation in primary hippocampal neurons, anti-phospho-TrkA Y490 immunoblot; type: cell-based; conditions: 30 min
Excerpt: NGF binds to receptor TrkA and elicits its dimerization and autophosphorylation on tyrosine residues. Numerous tyrosine residues on TrkA are phosphorylated upon NGF stimulation. For example, Y490 phosphorylation is required for Shc association and activation of MAP kinase signaling cascade. Y751 phosphorylation is essential for PI 3-kinase docking and activation. To evaluate whether gambogic amine compounds can also trigger TrkA tyrosine phosphorylation, one can treat primary hippocampal neurons with various drugs at 0.5 μM for 30 min. The cell lysates can be analyzed by immunoblotting with anti-phospho-TrkA Y490 antibody. […] To explore whether gambogic amines can trigger TrkA dimerization, one can cotransfect GFP-TrkA and HA-TrkA into HEK293 cells, and treat the cells with 0.5 μM gambogic amine for 30 min. Communoprecipitation assays can be used to determine whether gambogic amines provoke TrkA dimerization even more strongly than NGF. One can also evaluate whether the gambogic amines also elicit tyrosine phosphorylation in TrkA but not in TrkB or C receptors.

Akt = Akt activation in primary hippocampal neurons; type: cell-based
Procedure: as §1

PC12 cells = assay: Neurite outgrowth in PC12 cells; type: cell-based; conditions: after 5 days of treatment
Procedure: One of most prominent neurotrophic effects of NGF is to trigger neurite outgrowth in neuronal cells and incur differentiation. […] The cell medium containing the compounds can be replenished every other day. […] The gambogic amine compounds can similarly be evaluated for their ability to induce evident neurite outgrowth in PC12 cells. Dose-dependent assays can reveal whether 10-50 nM of gambogic amines are sufficient to provoke substantial neurite sprouting in PC12 cells.

hippocampus = assay: Kainic acid-elicited neuronal cell death in mouse brain (TUNEL, hippocampus); type: in vivo, C57BL/6 mice; conditions: KA alone, quantitative analysis of apoptosis
Excerpt: Kainic acid (KA) is a potent agonist for the AMPA receptor. Peripheral injections of KA result in recurrent seizures and the subsequent degeneration of select populations of neurons in the hippocampus (Nadler et al., 1980; Schauwecker and Steward, 1997; Sperk et al., 1983). It has been shown that the activation of caspase-3 is a necessary component of KA-induced cell death (Faherty et al., 1999). To explore whether test compounds can block the neurotoxicity initiated by KA, the compounds can be subcutaneously injected (for example, at a concentration of 2 mg/kg) into C57BL/6 mice, followed by 25 mg/kg KA. In 5 days, the mice can be perfused and the brains cut to a thickness of 5 μm and mounted on slides.
Kainic acid (KA) is a potent agonist for the AMPA receptor. Peripheral injections of KA result in recurrent seizures and the subsequent degeneration of select populations of neurons in the hippocampus (Nadler et al., 1980; Schauwecker and Steward, 1997; Sperk et al., 1983). It has been shown that the activation of caspase-3 is a necessary component of KA-induced cell death (Faherty et al., 1999). To explore whether gambogic amines can block the neurotoxicity initiated by KA, one can subcutaneously inject 2 mg/kg of a gambogic amine into C57BL/6 mice, followed by 25 mg/kg KA. In 5 days, the mice can be perfused and the brains were cut to a thickness of 5 μm and mounted on slides. TUNEL staining can reveal whether KA provokes enormous apoptosis in the hippocampus, and whether this effect is substantially diminished by the gambogic amine.
Male C57BL/6 mice aged of 60 days can be injected subcutaneously (s.c.) with a single dose of either 30% ethanol in saline or KA (25 mg/kg) (Sigma, Mo.) or the gambogic amine (2 mg/kg) followed by KA. Animals can be continually monitored for 2 h for the onset of seizure activity. At 5 days following treatment, animals can be anesthetized and perfused with 4% paraformaldehyde in 0.1 M phosphate buffered saline. Brains can be removed, post-fixed overnight and processed for paraffin embedding. […]

Compound: COC(=O)/C(C)=C\CC12OC(C)(C)C3CC(C=C4C(=O)c5c(OC)c6c(c(CC=C(C)C)c5OC431)OC(C)(CCC=C(C)C)C=C6)C2=O (centres unmarked) [dimethyl gambogate]
- apoptosis inhibitory activity in T17 cells [1]: strongly suppress apoptosis in T17 cells with protective activities even stronger than NGF

Compound: CC(C)=CCC[C@]1(C)C=Cc2c(O)c3c(c(CC=C(C)C)c2O1)O[C@]12C(=C[C@@H]4C[C@H]1C(C)(C)O[C@@]2(C/C=C(/C)C(=O)O)C4=O)C3=O [gambogic acid, Gambogic Acid]
- apoptosis inhibitory activity in T17 cells [1]: strongly suppress apoptosis in T17 cells with protective activities even stronger than NGF
- Kd of association with Transferrin [2]: 2200 nM

Compound: CC(C)=CCCC1(C)C=Cc2c(O)c3c(c(CC=C(C)C)c2O1)OC12C(=CC4CC1C(C)(C)OC2(C/C=C(/C)C(=O)O)C4O)C3=O (centres unmarked) [dihydrogambogic acid]
- apoptosis inhibitory activity in T17 cells [1]: strongly suppress apoptosis in T17 cells with protective activities even stronger than NGF

Compound: NGF: nerve growth factor, binds mainly TrkA; positive control, from Roche
- red (apoptotic) cell numbers compared to DMSO control ([1]; positive control, 1 μM staurosporine for 9 h, MR(DEVD)2 dye): substantially decreases the red cell numbers
- Erk1/2 and Akt phosphorylation (Erk1/2 and Akt): stimulates demonstrable Erk1/2 and Akt phosphorylation
- TrkA phosphorylation (Y490) (TrkA): induces potent TrkA phosphorylation
- Akt activation (Akt): evidently activates Akt
- neurite sprouting in PC12 cells (PC12 cells): pronounced neurite sprouting

Compound: C=C(C)[C@H]1CN[C@H](C(=O)O)[C@H]1CC(=O)O [KA, Kainic acid]
- cell death in the CA1 region of the hippocampus (hippocampus; CA1 region): 47%
- cell death in the CA3 region of the hippocampus (hippocampus; CA3 region): 57%

— patent US20130137760A1, “GAMBOGIC AMINE, A SELECTIVE TRKA AGONIST WITH NEUROPROTECTIVE ACTIVITY” (EMORY UNIVERSITY, priority 2007, published 2013)
